Data from PMC6158189, “A pharmacological probe identifies cystathionine β-synthase as a new negative regulator for ferroptosis” (Cell Death & Disease, 2018).

Experiments:
[1] = tested on: HEK293T cells; assay: cell cycle distribution (propidium iodide, flow cytometry); format: cell-based; conditions: 3 μM, 12 h
Description: Fig. 4 CH004 arrests the cell cycle at the S phase. a CH004 reduces the cell viability of HEK293T and HepG2 cells. HEK293T or HepG2 cells were treated with indicated concentrations of CH004 for 24 h before the cell number was analyzed using the CellTiter96® Aqueous One Solution Cell Proliferation Assay (Promega, Materials and Methods). The means at each concentration of one representative experiment are shown as percentages of DMSO (control, 100%). Means ± SDs (n = 3). b Overexpression of hCBS or knock-down of hCBS counteracts the growth inhibition exerted by CH004 in HEK293T cells. Indicated HEK293T stable cell lines were treated with the CH004 or DMSO for 24 h. Then, the cell viability was quantified with the CellTiter 96® Aqueous One Solution Cell Proliferation Assay under the standard protocol (Promega). […] The efficacy for CBS overexpression and knock-down in HEK293T cells was determined by Western blotting using an anti-CBS antibody (3E1, 1:2000; Abnova). c CH004 induces cell death in HEK293T and HepG2 cells. […] HEK293T cells were incubated with indicated compounds for 12 h, and the DNA content was quantified with propidium iodide to analyze the cell cycle distribution by flow cytometry (e). The cell cycle distributions for HEK293T-shNT and HEK293T-shCBS cells were accordingly analyzed and are shown in f. […]

[2] = tested on: HEK293T cells; assay: total Hcys in HEK293T cells (ELISA); format: cell-based; conditions: 5 or 10 μM, 12 h
Description: Fig. 3 The effect of CH004 on the activity of endogenous hCBS in cells. a CH004 dose-dependently elevates the levels of Hcys in HepG2 and HEK293T cells. HepG2 cells or HEK293T cells were incubated with indicated CH004 or DMSO (control) for 12 h. The amount of total Hcys in cells was measured by ELISA using Axis® Homocysteine EIA kit (IBL, AX51301) (“Materials and Methods” section). […] HepG2 cells were treated with indicated DMSO, CH004 or HA for 8 h before the staining with AzMC probe. The amount of the H2S (blue) was quantified and is shown in (c). Bars, 50 μm. Control (CTR), DMSO group (100%). A representative fluorescence image from three independent experiments is shown. Means ± SDS (n = 3). d CH004 elevates Hcys in the peripheral blood of rats. The total Hcys of the blood samples collected from the anesthetized rats at the 75 min time point (Materials and Methods) were quantified by ELISA (see above). Means ± SDS (n = 6).
HepG2 or HEK293T cells were seeded in poly-D-Lys-coated 6-well plates at a density of ∼ 5 × 10^5 cells per well for one day, treated with DMSO or various concentrations of compounds for another 12 h before the collection by scraping or trypsinization. […]

Cn1nc(Cc2ccccc2)nc2c(=O)n(C)c(=O)nc1-2 [CH004, 3-benzyl-1,6-dimethylpyrimido[5,4-e][1,2,4]triazine-5,7(1H,6H)-dione]
increase in cell number in the S phase [1]: more than 20%
increase of Hcys [2]: ~ 2 fold
